Assays:
[1] = biological target: recombinant BACE1 protein (Homo sapiens, UniProt P56817); assay: Biochemical FRET based assay; settings: recombinant BACE1 1 μg/ml, 120 minutes at room temperature, pH 5.0; for IC50: read-out: Biochemical FRET based assay pIC50 (converted)
In short: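 Proteolysis was read as the rise in donor fluorescence (320 nm excitation, 405 nm emission) from T0 to T120, expressed in RFU. The reaction ran 120 minutes at room temperature at pH 5.0 in citrate buffer with 4% DMSO, using […] quenched Swedish APP peptide and 1 μg/ml BACE1.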

[2] = system: Abeta total; assay: Cellular αLisa assay in SKNBE2 cells, Abeta total; type: cell-based, human; settings: incubated for 18 hours; for IC50: Homo sapiens, SKNBE2, 18 h, read-out: Cellular αLisa assay in SKNBE2 cells Abetatotal pIC50 (converted)
In short: (§1)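 Secreted Abeta levels were measured by sandwich αLisa, pairing biotin-AbN/25 donor beads with Ab4G8 acceptor beads for total Abeta or cAb42/26 for Abeta 1-42, read at 615 nm after 650 nm excitation following 1 hour. Cells were SKNBE2 expressing wild-type hAPP695, exposed to compound for 18 hours.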

[3] = system: Abeta 1-42; assay: Cellular αLisa assay in SKNBE2 cells, Abeta 1-42; type: cell-based, human; settings: incubated for 18 hours; for IC50: Homo sapiens, SKNBE2, 18 h, read-out: Cellular αLisa assay in SKNBE2 cells Abeta 42 pIC50 (converted)
In short: as §1

Sequence of recombinant BACE1 protein (P56817 46-501): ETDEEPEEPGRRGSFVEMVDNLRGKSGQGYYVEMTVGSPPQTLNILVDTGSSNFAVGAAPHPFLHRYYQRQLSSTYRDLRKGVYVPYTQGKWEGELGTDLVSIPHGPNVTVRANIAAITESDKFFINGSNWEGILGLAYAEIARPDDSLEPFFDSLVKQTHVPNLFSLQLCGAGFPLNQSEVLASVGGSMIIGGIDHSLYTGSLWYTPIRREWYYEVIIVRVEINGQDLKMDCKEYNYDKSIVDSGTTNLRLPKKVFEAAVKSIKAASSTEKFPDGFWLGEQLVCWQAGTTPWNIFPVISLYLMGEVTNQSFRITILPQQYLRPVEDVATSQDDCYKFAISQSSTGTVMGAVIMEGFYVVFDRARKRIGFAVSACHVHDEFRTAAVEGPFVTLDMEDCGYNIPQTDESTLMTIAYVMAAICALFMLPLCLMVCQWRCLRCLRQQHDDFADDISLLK

| Compound | IC50 [1] [nM] | IC50 [2] [nM] | IC50 [3] [nM] | Cellular αLisa assay in SKNBE2 cells Abetatotal pIC50 [2] | Cellular αLisa assay in SKNBE2 cells Abeta 42 pIC50 [3] | Biochemical FRET based assay pIC50 [1] |
| --- | --- | --- | --- | --- | --- | --- |
| NC1=N[C@@](c2cccc(NC(=O)c3ncc(Cl)cc3F)c2)(C2CC2)[C@@H](F)OC1 [Compound 250, (2R,3R)—N-[3-(5-amino-3-cyclopropyl-2-fluoro-3,6-dihydro-2H-1,4-oxazin-3-yl)phenyl]-5-chloro-3-fluoropyridine-2-carboxamide] | 60.3 | 39.8 | 43.7 | – | – | – |
| N#Cc1ccc(C(=O)Nc2cccc([C@@]3(C4CC4)N=C(N)CO[C@@H]3F)c2)nc1 [Compound 251] | 49 | 38 | 41.7 | – | – | – |
| N#Cc1cncc(-c2cccc([C@@]3(C4CC4)N=C(N)CO[C@H]3C(F)(F)F)c2)c1 [Compound 253, (5R,6R)-5-{3-[5-amino-3-cyclopropyl-2-(trifluoromethyl)-3,6-dihydro-2H-1,4-oxazin-3-yl]phenyl}pyridine-3-carbonitrile] | 155 | 50.1 | 49 | – | – | – |
| NC1=N[C@@](c2cccc(NC(=O)c3ncc(Cl)cc3Cl)c2)(C2CC2)[C@@H](F)OC1 [Compound 256] | 42.7 | 26.3 | 28.8 | – | – | – |
| NC1=N[C@@](c2cccc(-c3cncnc3)c2)(C2CC2)[C@@H](F)OC1 [Compound 257] | 891 | 977 | 1020 | – | – | – |
| NC1=N[C@@](c2cc(NC(=O)c3ncc(Cl)cc3Cl)ccc2F)(C2CC2)[C@@H](F)OC1 [Compound 259] | 85.1 | 126 | 135 | – | – | – |
| C[C@]1(c2cc(NC(=O)c3ncc(Cl)cc3F)ccc2F)N=C(N)CO[C@H]1C(F)(F)F [Compound 260] | 47.9 | 6.46 | 6.61 | – | – | – |
| N#Cc1ccc(C(=O)Nc2ccc(F)c([C@@]3(C4CC4)N=C(N)CO[C@@]3(F)C(F)(F)F)c2)nc1 [Compound 262] | 30.2 | 74.1 | 69.2 | – | – | – |
| NC1=N[C@@](c2cc(NC(=O)c3cnc(OCC(F)(F)F)cn3)ccc2F)(C2CC2)[C@@H](F)OC1 [Compound 264] | 91.2 | 316 | 347 | – | – | – |
| NC1=N[C@@](c2cccc(-c3cncnc3)c2)(C2CC2)[C@H](C(F)(F)F)OC1 [Compound 269] | 158 | 57.5 | 58.9 | – | – | – |
| NC1=N[C@@](c2cccc(-c3cncc(F)c3)c2)(C2CC2)[C@H](C(F)(F)F)OC1 [Compound 270] | 132 | 47.9 | 46.8 | – | – | – |
| N#Cc1cncc(-c2ccc(F)c([C@@]3(C4CC4)N=C(N)CO[C@@]3(F)C(F)(F)F)c2)c1 [Compound 271] | > 30200 | > 10000 | > 10000 | – | – | – |
| Cc1cc(Br)cnc1C(=O)Nc1cccc([C@@]2(C3CC3)N=C(N)CO[C@H]2F)c1 [Compound 272] | 91.2 | 35.5 | 36.3 | – | – | – |
| NC1=N[C@@](c2cccc(NC(=O)c3cnc(OCC(F)(F)F)cn3)c2)(C2CC2)[C@H](F)OC1 [Compound 274] | 263 | 120 | 120 | – | – | – |
| NC1=N[C@@](c2cccc(NC(=O)c3cnc(OCC(F)(F)F)cn3)c2)(C2CC2)[C@@H](F)OC1 [Compound 275] | 61.7 | 56.2 | 58.9 | – | – | – |
| NC1=N[C@@](c2cccc(NC(=O)c3ncc(Cl)cc3Cl)c2)(C2CC2)[C@H](F)OC1 [Compound 276] | 174 | 41.7 | 41.7 | – | – | – |
| N#Cc1ccc(C(=O)Nc2cccc([C@@]3(C4CC4)N=C(N)CO[C@H]3F)c2)nc1 [Compound 280] | 182 | 57.5 | 58.9 | – | – | – |
| CCC1(c2cc(NC(=O)c3cnc(OC)cn3)ccc2F)N=C(N)COC1F (stereo not drawn) [Compound 281] | 74.1 | – | – | 7.34 | 7.3 | – |
| CCC1(c2cc(NC(=O)c3cnc(OC)cn3)ccc2F)N=C(N)COC1F (stereo not drawn) [Compound 282] | 891 | – | – | 6.65 | 6.56 | – |
| CCC1(c2cc(NC(=O)c3ncc(Cl)cc3F)ccc2F)N=C(N)COC1F (stereo not drawn) [Compound 283] | 67.6 | 24.5 | 30.2 | – | – | – |
| CCC1(c2cc(NC(=O)c3ncc(C#N)cc3Cl)ccc2F)N=C(N)COC1C(F)(F)F (stereo not drawn) [Compound 284] | 87.1 | 17.4 | 17.8 | – | – | – |
| CCC1(c2cc(NC(=O)c3cnc(OC)cn3)ccc2F)N=C(N)COC1C(F)(F)F (stereo not drawn) [Compound 285] | 100 | 15.8 | 14.8 | – | – | – |
| NC1=N[C@@](c2cccc(-c3cncnc3)c2)(C2CC2)[C@@H](C(F)(F)F)OC1 [Compound 286] | 851 | 155 | 158 | – | – | – |

| Compound | IC50 [1] [nM] | IC50 [2] [nM] | IC50 [3] [nM] | Cellular αLisa assay in SKNBE2 cells Abetatotal pIC50 [2] | Cellular αLisa assay in SKNBE2 cells Abeta 42 pIC50 [3] | Biochemical FRET based assay pIC50 [1] |
| --- | --- | --- | --- | --- | --- | --- |
| NC1=N[C@@](c2cccc(NC(=O)c3ncc(Cl)cc3F)c2)(C2CC2)[C@@H](C(F)(F)F)OC1 [Compound 287] | 138 | 27.5 | 32.4 | – | – | – |
| NC1=N[C@@](c2cccc(NC(=O)c3ncc(Cl)cc3F)c2)(C2CC2)[C@H](C(F)(F)F)OC1 [Compound 288] | 33.1 | 7.41 | 7.76 | – | – | – |
| NC1=N[C@@](c2cccc(NC(=O)c3cnc(OCC(F)(F)F)cn3)c2)(C2CC2)[C@H](C(F)(F)F)OC1 [Compound 289] | 30.9 | 10.5 | 10 | – | – | – |
| N#Cc1cnc(C(=O)Nc2cccc([C@@]3(C4CC4)N=C(N)CO[C@@H]3C(F)(F)F)c2)c(Cl)c1 [Compound 290] | 97.7 | 17.8 | 18.6 | – | – | – |
| N#Cc1cnc(C(=O)Nc2cccc([C@@]3(C4CC4)N=C(N)CO[C@H]3C(F)(F)F)c2)c(Cl)c1 [Compound 291] | 32.4 | 4.9 | 5.62 | – | – | – |
| CC#Cc1cncc(-c2ccc(F)c(C3(C4CC4)N=C(N)COC3F)c2)c1 (stereo not drawn) [Compound 292] | – | – | – | 6.17 | 5.98 | 6.17 |
| CC#Cc1cncc(-c2ccc(F)c([C@@]3(C4CC4)N=C(N)CO[C@H]3F)c2)c1 [Compound 293] | 1380 | 1550 | 1860 | – | – | – |
| NC1=N[C@@](c2cc(-c3cncc(Cl)c3)ccc2F)(C2CC2)[C@@H](F)OC1 [Compound 294] | 2290 | 4900 | 6610 | – | – | – |
| NC1=NC(c2cc(-c3cncnc3)ccc2F)(C2CC2)C(F)OC1 (stereo not drawn) [Compound 296] | – | – | – | <5 | <5 | 5.42 |
| Cc1cc(Cl)cnc1C(=O)Nc1cccc([C@@]2(C3CC3)N=C(N)CO[C@@H]2F)c1 [Compound 297] | 38.9 | 17.4 | 19.1 | – | – | – |
| Cc1cc(Cl)cnc1C(=O)Nc1cccc([C@@]2(C3CC3)N=C(N)CO[C@H]2F)c1 [Compound 298] | 123 | 58.9 | 61.7 | – | – | – |
| CCC1(c2cc(NC(=O)c3cnc(OC)cn3)ccc2F)N=C(N)COC1(F)C(F)(F)F (stereo not drawn) [Compound 300] | 1550 | – | – | 5.93 | 5.91 | – |
| CCC1(c2cc(-c3cncnc3)ccc2F)N=C(N)COC1(F)C(F)(F)F (stereo not drawn) [Compound 302] | > 30200 | – | – | <5 | <5 | – |
| COc1ccc(C(=O)Nc2ccc(F)c([C@@]3(C)N=C(N)CO[C@]3(F)C(F)(F)F)c2)nc1 [Compound 304] | 589 | 339 | 363 | – | – | – |
| C[C@]1(c2cc(NC(=O)c3ncc(C#N)cc3Cl)ccc2F)N=C(N)CO[C@]1(F)C(F)(F)F [Compound 306] | 36.3 | 7.41 | 6.92 | – | – | – |
| C[C@]1(c2cc(NC(=O)c3ncc(C#N)cc3Cl)ccc2F)N=C(N)CO[C@@]1(F)C(F)(F)F [Compound 307] | 200 | 93.3 | 107 | – | – | – |
| C[C@]1(c2cc(NC(=O)c3ncc(C#N)cc3Cl)ccc2F)N=C(N)CO[C@H]1C(F)(F)F [Compound 308] | 49 | 6.17 | 6.31 | – | – | – |
| N#Cc1cnc(C(=O)Nc2cccc([C@@]3(C4CC4)N=C(N)CO[C@H]3F)c2)c(Cl)c1 [Compound 309] | 219 | 72.4 | 74.1 | – | – | – |
| CCC1(c2cc(-c3cncc(C#N)c3)ccc2F)N=C(N)COC1C(F)(F)F (stereo not drawn) [Compound 310] | 3310 | 617 | 776 | – | – | – |
| N#Cc1cncc(-c2cccc([C@@]3(C4CC4)N=C(N)CO[C@@H]3F)c2)c1 [Compound 311] | 1380 | 1120 | 1450 | – | – | – |
| NC1=N[C@@](c2cc(-c3cncnc3)ccc2F)(C2CC2)[C@](F)(C(F)(F)F)OC1 [Compound 312] | 661 | 2820 | 3240 | – | – | – |
| Cc1cc(Br)cnc1C(=O)Nc1cccc([C@@]2(C3CC3)N=C(N)CO[C@@H]2F)c1 [Compound 313] | 16.6 | 13.5 | 17.8 | – | – | – |
| Cc1cc(Cl)cnc1C(=O)Nc1ccc(F)c([C@@]2(C3CC3)N=C(N)CO[C@@H]2F)c1 [Compound 315] | 81.3 | 145 | 170 | – | – | – |
